16 molecules from ChEMBL document CHEMBL3991601, “The target landscape of clinical kinase drugs” (Science, 2017) can be followed below.

Calls of active or inactive are those of the source. For most assays here, no stated cut-off is given here; in the data, actives have a measured Kd and inactives only a lower limit. Where only a bound is given, the exact number is not on record here.

In experiment [1] the target is Serine/threonine-protein kinase SIK2 (Homo sapiens, UniProt Q9H0K1).
The target in experiment [2] is T1, MAP/microtubule affinity-regulating kinase 4 (Homo sapiens, UniProt Q96L34).
T1 sequence (Q96L34 whole entry): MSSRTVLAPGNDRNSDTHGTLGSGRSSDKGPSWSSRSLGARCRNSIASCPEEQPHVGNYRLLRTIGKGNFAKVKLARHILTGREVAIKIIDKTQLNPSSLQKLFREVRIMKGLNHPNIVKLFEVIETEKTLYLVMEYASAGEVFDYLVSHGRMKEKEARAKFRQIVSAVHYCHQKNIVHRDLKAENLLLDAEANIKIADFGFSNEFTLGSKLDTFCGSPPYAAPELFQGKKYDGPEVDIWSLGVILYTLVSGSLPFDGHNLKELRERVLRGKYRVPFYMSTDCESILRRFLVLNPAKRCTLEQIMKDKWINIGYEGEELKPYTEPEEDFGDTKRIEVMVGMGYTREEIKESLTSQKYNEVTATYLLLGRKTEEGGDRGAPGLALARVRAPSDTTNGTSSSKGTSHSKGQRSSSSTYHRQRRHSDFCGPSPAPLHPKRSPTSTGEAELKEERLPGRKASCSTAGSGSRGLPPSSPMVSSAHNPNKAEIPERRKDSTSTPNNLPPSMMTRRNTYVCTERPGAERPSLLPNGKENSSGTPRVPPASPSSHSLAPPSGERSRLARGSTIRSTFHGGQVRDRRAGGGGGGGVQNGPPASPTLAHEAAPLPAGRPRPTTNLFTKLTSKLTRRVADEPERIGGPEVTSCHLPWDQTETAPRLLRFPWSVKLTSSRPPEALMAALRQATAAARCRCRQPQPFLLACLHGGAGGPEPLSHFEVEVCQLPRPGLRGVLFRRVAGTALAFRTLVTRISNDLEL

For experiment [3], the target named is T2, Uncharacterized protein FLJ45252 (Homo sapiens, UniProt Q6ZSR9).
T2 sequence (Q6ZSR9 whole entry): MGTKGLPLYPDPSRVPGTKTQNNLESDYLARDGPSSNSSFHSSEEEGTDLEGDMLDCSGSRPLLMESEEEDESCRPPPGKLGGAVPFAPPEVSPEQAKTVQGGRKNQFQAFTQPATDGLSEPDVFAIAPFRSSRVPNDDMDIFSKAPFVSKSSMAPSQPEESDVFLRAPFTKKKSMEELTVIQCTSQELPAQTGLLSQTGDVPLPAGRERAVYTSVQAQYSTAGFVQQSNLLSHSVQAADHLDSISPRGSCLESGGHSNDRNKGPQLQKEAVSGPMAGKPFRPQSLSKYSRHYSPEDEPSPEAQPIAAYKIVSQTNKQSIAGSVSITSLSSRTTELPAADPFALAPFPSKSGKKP
The conditions noted are these: read-out: Kd apparent; k-562, colo 205, sk-n-be(2) and mv-4-11.

For experiment [4], the target named is T3, Mitogen-activated protein kinase kinase kinase kinase 2 (Homo sapiens, UniProt Q12851).
T3 sequence (Q12851 whole entry): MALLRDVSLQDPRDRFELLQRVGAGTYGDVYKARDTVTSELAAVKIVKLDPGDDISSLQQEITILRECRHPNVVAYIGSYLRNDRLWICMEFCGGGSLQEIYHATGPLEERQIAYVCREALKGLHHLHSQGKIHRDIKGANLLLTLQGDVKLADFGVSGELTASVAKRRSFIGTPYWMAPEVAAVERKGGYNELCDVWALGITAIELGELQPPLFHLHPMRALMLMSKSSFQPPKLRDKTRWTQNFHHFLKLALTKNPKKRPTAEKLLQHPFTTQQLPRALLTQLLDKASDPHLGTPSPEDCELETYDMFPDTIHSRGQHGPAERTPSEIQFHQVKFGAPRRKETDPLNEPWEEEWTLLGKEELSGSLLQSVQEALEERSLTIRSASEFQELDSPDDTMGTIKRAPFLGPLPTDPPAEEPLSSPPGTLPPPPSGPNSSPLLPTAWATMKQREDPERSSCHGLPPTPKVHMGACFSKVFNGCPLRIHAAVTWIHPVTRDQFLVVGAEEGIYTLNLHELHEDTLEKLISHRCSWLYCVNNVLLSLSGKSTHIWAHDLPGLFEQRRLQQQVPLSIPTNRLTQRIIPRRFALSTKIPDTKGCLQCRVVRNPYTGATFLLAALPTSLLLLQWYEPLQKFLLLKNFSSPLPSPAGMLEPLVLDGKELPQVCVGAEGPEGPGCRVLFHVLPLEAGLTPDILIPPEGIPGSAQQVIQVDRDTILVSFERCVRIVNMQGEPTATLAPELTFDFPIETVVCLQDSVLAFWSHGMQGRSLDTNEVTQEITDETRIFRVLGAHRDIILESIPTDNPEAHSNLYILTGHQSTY

For experiment [5], the target named is Serine/threonine-protein kinase 10 (Homo sapiens, UniProt O94804).
The target of experiment [6] is Ribosomal protein S6 kinase alpha-3 (Homo sapiens, UniProt P51812).
For experiment [7], the target named is Serine/threonine-protein kinase MRCK alpha (Homo sapiens, UniProt Q5VT25).
Chain of Serine/threonine-protein kinase MRCK alpha (Q5VT25 whole entry): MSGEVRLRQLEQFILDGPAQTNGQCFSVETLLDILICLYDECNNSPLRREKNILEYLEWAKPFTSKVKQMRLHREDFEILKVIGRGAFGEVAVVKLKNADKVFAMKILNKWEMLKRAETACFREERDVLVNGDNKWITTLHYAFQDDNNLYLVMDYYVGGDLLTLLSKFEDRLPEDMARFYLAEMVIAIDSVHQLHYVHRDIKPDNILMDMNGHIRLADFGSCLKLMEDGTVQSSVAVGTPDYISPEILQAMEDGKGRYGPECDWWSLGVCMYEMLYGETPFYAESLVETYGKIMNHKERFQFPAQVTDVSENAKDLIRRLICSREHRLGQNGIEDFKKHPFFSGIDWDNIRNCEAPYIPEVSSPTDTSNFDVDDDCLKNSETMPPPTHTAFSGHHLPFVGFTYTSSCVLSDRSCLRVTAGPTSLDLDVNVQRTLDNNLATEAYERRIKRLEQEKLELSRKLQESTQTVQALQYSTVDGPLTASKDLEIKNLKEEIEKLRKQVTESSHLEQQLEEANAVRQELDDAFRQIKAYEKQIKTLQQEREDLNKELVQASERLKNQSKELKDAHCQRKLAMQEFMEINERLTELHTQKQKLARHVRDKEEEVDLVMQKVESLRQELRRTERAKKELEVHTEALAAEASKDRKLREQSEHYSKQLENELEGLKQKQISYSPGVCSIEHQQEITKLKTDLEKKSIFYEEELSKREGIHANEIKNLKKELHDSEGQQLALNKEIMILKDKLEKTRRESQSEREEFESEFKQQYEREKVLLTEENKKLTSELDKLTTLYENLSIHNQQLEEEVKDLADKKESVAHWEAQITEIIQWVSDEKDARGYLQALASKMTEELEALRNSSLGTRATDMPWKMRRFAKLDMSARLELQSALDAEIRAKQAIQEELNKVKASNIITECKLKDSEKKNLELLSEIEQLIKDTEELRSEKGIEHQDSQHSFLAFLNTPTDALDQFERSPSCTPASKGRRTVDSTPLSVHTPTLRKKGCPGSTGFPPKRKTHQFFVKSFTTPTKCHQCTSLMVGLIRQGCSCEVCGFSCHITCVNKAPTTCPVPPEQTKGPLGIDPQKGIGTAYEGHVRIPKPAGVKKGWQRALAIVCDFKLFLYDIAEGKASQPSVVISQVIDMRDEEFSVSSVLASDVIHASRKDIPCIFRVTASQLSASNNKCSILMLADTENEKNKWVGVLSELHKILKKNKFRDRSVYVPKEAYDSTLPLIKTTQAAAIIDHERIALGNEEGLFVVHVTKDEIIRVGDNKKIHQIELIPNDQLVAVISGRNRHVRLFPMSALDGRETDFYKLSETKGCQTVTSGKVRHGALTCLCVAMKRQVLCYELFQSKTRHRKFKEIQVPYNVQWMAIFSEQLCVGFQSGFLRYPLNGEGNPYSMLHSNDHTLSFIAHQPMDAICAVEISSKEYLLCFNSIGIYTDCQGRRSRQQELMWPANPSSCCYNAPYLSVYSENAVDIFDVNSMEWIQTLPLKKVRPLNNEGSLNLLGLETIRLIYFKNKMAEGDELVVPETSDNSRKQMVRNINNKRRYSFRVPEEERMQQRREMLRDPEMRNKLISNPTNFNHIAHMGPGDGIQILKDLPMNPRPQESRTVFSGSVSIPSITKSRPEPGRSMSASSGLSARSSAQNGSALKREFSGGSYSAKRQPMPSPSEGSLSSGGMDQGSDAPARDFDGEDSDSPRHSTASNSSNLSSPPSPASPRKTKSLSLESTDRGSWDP

Chain of Serine/threonine-protein kinase SIK2 (Q9H0K1 whole entry): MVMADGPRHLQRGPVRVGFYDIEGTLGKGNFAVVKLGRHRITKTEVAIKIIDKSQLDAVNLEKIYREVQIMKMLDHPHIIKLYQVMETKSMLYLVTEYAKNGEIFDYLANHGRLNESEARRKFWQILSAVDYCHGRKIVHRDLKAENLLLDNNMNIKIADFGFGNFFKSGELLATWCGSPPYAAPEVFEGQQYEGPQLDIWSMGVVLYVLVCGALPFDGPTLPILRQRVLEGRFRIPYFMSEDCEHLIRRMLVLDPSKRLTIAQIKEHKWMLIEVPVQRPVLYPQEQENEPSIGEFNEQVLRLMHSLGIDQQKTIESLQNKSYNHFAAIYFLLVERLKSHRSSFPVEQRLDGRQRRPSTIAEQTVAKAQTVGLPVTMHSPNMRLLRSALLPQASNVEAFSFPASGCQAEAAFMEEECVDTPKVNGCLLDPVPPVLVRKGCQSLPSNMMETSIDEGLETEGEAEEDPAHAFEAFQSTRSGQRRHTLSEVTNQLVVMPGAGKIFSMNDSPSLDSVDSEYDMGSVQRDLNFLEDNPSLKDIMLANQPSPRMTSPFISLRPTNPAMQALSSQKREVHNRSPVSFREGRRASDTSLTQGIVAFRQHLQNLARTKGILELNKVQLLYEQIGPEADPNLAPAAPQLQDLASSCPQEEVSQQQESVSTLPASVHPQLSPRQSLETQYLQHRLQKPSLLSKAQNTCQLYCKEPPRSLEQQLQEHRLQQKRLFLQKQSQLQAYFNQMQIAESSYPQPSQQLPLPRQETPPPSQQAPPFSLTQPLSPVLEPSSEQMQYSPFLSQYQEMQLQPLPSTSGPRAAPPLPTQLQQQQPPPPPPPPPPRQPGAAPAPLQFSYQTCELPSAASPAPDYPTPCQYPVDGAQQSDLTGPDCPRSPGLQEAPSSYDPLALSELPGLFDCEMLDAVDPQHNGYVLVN
Chain of Ribosomal protein S6 kinase alpha-3 (P51812 whole entry): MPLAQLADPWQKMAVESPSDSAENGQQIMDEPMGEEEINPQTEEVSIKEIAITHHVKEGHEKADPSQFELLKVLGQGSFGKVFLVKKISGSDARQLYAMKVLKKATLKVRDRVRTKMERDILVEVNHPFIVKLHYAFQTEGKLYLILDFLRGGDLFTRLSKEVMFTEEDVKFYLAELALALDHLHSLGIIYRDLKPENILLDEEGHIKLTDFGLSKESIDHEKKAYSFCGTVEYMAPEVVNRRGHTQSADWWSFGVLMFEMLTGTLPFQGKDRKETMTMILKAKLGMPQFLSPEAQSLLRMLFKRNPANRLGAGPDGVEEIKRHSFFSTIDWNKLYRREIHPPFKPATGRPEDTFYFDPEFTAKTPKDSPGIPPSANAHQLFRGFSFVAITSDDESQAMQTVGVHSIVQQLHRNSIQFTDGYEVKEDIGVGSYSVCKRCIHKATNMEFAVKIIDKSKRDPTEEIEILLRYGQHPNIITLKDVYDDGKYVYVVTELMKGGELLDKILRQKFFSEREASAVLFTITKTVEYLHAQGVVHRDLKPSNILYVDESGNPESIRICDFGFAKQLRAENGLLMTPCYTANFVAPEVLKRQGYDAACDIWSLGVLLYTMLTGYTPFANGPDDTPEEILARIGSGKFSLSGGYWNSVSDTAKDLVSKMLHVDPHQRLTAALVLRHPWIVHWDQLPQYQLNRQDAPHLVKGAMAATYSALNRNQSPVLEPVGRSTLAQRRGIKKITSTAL
Chain of Serine/threonine-protein kinase 10 (O94804 whole entry): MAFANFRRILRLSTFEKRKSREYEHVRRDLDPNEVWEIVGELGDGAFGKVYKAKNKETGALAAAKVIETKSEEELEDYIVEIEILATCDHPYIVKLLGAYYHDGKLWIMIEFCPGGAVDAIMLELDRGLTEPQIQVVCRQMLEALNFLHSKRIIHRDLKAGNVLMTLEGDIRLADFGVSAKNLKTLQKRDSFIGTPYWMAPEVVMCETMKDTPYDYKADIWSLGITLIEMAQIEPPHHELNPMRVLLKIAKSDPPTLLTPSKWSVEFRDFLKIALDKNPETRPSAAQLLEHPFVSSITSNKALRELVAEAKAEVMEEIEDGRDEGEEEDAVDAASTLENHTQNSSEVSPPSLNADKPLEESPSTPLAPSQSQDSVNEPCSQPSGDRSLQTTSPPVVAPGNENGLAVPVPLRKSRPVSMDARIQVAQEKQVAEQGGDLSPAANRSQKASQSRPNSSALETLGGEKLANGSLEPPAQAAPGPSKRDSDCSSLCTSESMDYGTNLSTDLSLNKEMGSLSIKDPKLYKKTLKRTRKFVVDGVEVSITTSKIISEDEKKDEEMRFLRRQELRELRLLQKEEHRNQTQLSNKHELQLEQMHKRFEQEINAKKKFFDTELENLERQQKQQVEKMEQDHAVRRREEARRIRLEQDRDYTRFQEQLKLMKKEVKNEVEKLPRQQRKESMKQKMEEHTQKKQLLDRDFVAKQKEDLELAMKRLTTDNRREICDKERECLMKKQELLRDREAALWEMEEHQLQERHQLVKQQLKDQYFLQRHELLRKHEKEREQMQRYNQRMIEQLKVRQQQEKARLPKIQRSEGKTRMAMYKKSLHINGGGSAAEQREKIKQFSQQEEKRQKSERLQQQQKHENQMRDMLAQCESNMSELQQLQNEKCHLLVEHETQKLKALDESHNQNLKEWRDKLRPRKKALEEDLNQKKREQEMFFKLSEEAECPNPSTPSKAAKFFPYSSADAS

`COc1cc(OC)c(/C=C/S(=O)(=O)Cc2ccc(OC)c(NCC(=O)O)c2)c(OC)c1` [RIGOSERTIB]: the Kd in experiment [1], in experiment [2], in experiment [3], in experiment [4], in experiment [5] and in experiment [6] was > 30 µM (inactive) each time. In addition, in experiment [7], the Kd is > 30 µM (inactive).
In the case of `CCn1c(=O)c(-c2cc[nH]n2)cc2c(C)nc(N)nc21` [VOXTALISIB], the Kd in experiment [1], in experiment [2], in experiment [3], in experiment [4], in experiment [5] and in experiment [6] was > 30 µM (inactive) each time. Also, the Kd in experiment [7] was > 30 µM (inactive).
On to `CO[C@H]1C[C@@H]2CC[C@@H](C)[C@@](O)(O2)C(=O)C(=O)N2CCCC[C@H]2C(=O)O[C@H]([C@H](C)C[C@@H]2CC[C@@H](OCCO)[C@H](OC)C2)CC(=O)[C@H](C)/C=C(\C)[C@@H](O)[C@@H](OC)C(=O)[C@H](C)C[C@H](C)/C=C/C=C/C=C/1C` [EVEROLIMUS], for which the Kd in experiment [1], in experiment [2], in experiment [3], in experiment [4], in experiment [5] and in experiment [6] was > 30 µM (inactive) in each case. For the same molecule, the Kd in experiment [7] was > 30 µM (inactive).
Consider `O=C(Nc1ccc(-c2ccnc(Nc3ccc(N4CCOCC4)cc3)n2)cc1)C1CCCN1` (configuration not stated) [XL-019], for which the Kd in experiment [1] was 0.3 µM (active); in experiment [2] it was > 30 µM (inactive); in experiment [3] it was 0.007 µM (active); in experiment [4], > 30 µM (inactive); in experiment [5] it was > 30 µM (inactive); in experiment [6] it was > 30 µM (inactive). The Kd in experiment [7] was > 30 µM (inactive).
As for `Cn1ncc(Cl)c1-c1cc(C(=O)N[C@H](CN)Cc2cccc(F)c2)sc1Cl` [AFURESERTIB], the Kd in experiment [1], in experiment [2], in experiment [3], in experiment [4], in experiment [5] and in experiment [6] was > 30 µM (inactive) throughout. The Kd in experiment [7] is > 30 µM (inactive).
With `CNC(=O)CN1CCC(Oc2cc3c(Nc4cccc(Cl)c4F)ncnc3cc2OC)CC1` [SAPITINIB], the Kd in experiment [1], in experiment [2], in experiment [3], in experiment [4], in experiment [5] and in experiment [6] was > 30 µM (inactive) in each case. In addition, in experiment [7], the Kd is > 30 µM (inactive).
`CC(=O)Nc1cccc(-n2c(=O)n(C3CC3)c(=O)c3c(Nc4ccc(I)cc4F)n(C)c(=O)c(C)c32)c1` [TRAMETINIB]: the Kd in experiment [1], in experiment [2], in experiment [3], in experiment [4], in experiment [5] and in experiment [6] was > 30 µM (inactive) throughout. In addition, in experiment [7], the Kd was > 30 µM (inactive).
With `COC(=O)N[C@@H](C)CNc1nccc(-c2cn(C(C)C)nc2-c2cc(Cl)cc(NS(C)(=O)=O)c2F)n1` [ENCORAFENIB], the Kd in experiment [1], in experiment [2], in experiment [3], in experiment [4], in experiment [5] and in experiment [6] was > 30 µM (inactive) in each case. In addition, the Kd in experiment [7] was > 30 µM (inactive).
As to `CNC(=O)c1ccc(-c2cnc3ncc(Cc4ccc5ncccc5c4)n3n2)cc1F` [CAPMATINIB], the Kd in experiment [1], in experiment [2], in experiment [3], in experiment [4], in experiment [5] and in experiment [6] was > 30 µM (inactive) in each case. For the same molecule, the Kd in experiment [7] was > 30 µM (inactive).
For the molecule `COC(=O)[C@@]1(O)C[C@H]2O[C@]1(C)n1c3ccccc3c3c4c(c5c6ccccc6n2c5c31)C(=O)NC4` [K-252A], the Kd in experiment [1] is 0.058 µM (active); in experiment [2], 0.028 µM (active); in experiment [3], 0.021 µM (active); in experiment [4], 0.131 µM (active); in experiment [5], 0.481 µM (active); in experiment [6] it was 2.99 µM (active). For the same molecule, the Kd in experiment [7] is > 30 µM (inactive).
Turning to `CNS(=O)(=O)Nc1nccc(Cc2c(C)c3ccc(Oc4ncccn4)cc3oc2=O)c1F` [AVUTOMETINIB], the Kd in experiment [1], in experiment [2], in experiment [3], in experiment [4], in experiment [5] and in experiment [6] was > 30 µM (inactive) throughout. In experiment [7], the Kd was > 30 µM (inactive).
As for `COc1ccc(-c2ccc3c(N4CCOC[C@@H]4C)nc(N4CCOC[C@@H]4C)nc3n2)cc1CO` [AZD-8055], the Kd in experiment [1], in experiment [2], in experiment [3], in experiment [4], in experiment [5] and in experiment [6] was > 30 µM (inactive) throughout. The Kd in experiment [7] is > 30 µM (inactive).
Consider `O=C(O)[C@]1(Cc2cccc(Nc3nccs3)n2)CC[C@@H](Oc2cccc(Cl)c2F)CC1` [MK-5108], for which the Kd in experiment [1] was > 30 µM (inactive); in experiment [2], > 30 µM (inactive); in experiment [3], > 30 µM (inactive); in experiment [4], 1.85 µM (active); in experiment [5], 1.09 µM (active); in experiment [6], > 30 µM (inactive). Also, the Kd in experiment [7] is > 30 µM (inactive).
On to `O=C1NC(=O)/C(=C/c2ccc3nccc(-c4ccncc4)c3c2)S1` [GSK-1059615], for which the Kd in experiment [1] was > 30 µM (inactive); in experiment [2] it was > 30 µM (inactive); in experiment [3], 0.078 µM (active); in experiment [4] it was > 30 µM (inactive); in experiment [5] it was 0.317 µM (active); in experiment [6] it was > 30 µM (inactive). Moreover, the Kd in experiment [7] was > 30 µM (inactive).
Take `C[C@@H](Nc1cc(F)cc(F)c1)c1cc(C(=O)N(C)C)cc2c(=O)cc(N3CCOCC3)oc12` [AZD-8186]: the Kd in experiment [1], in experiment [2], in experiment [3], in experiment [4], in experiment [5] and in experiment [6] was > 30 µM (inactive) throughout. Besides, the Kd in experiment [7] is > 30 µM (inactive).
With `Cc1c(F)cc(C(=O)NC2CC2)cc1-c1ccc(C(=O)NCC(C)(C)C)cn1` [LOSMAPIMOD], the Kd in experiment [1], in experiment [2], in experiment [3], in experiment [4], in experiment [5] and in experiment [6] was > 30 µM (inactive) each time. Moreover, in experiment [7], the Kd is > 30 µM (inactive).
